Where “and” joins values, the source holds several entries; their conditions need not be identical. Identical values can stand only once.
Key:
rats = test system: rats; design: method as in Thermo Fisher Scientific Safety Sheet data; conditions: oral in rats; ref Thermo Fisher Scientific Safety Sheet data; cited from earlier work
PXR [1] = target: T1, PXR (Homo sapiens, UniProt O75469); assay: Ligand efficiency metric (LEM) analysis; design: expressed in transfected cells; host or cells: LS180; conditions: NSEI-nBEI plane, from PXR reporter Emax
T1 sequence (O75469 1-434): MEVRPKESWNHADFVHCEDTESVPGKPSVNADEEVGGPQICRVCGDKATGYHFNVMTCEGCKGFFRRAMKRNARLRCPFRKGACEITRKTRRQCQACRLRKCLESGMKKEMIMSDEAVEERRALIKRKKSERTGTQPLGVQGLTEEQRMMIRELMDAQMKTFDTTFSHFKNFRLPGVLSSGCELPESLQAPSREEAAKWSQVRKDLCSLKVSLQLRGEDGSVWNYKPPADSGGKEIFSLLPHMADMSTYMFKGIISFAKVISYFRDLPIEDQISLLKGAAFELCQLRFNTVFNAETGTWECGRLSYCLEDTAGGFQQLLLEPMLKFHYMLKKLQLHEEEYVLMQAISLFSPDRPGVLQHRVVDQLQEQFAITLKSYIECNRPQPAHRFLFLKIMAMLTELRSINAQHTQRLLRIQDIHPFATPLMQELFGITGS
Source text: Ligand efficiency metric (LEM) analysis for FKK ligand efficiency. The ligand efficiency metrics (LEMs) of compounds FKK1 to 10 and FKK999 as a reference compound, have been analyzed by using a web tool named AtlasCBS which represents LEMs as variables for a Cartesian mapping of chemico-biological space (CBS). In particular, Cartesian planes combine three critical variables in drug discovery (affinity, size, and polarity) into easily interpretable ‘efficiency planes’ useful to guide a drug discovery process. In the Cartesian plane, each target:ligand pair appears as a point whose coordinates are given by pairs of values derived from the affinity of the ligand toward the target (Ki or equivalent) in relation to its size (MW or number of non-hydrogen atoms NHA), and its polarity (expressed as Polar Surface Area, PSA, or number of polar atoms, NPOL = count of N + O). The first one represents a size-related LEM and the second a polarity-related LEM. Consistently, compounds that correspond to marketed drugs typically occupy the upper right quadrant of the plots (‘Nort h-East’ direction, NE), where both the efficiency -pe r-size and efficiency -per-polarity are optimized 1,2.
Our results are represented in the efficiency plane NS EI-nBEI where:
NSEI = –log Ki/NPOL (N, O) = pKi/NPOL (N, O)
As a measure of activity of the above compounds, the reciprocal of the percentage efficacy values (1/Efficacy [%]) obtained in the PXR-dependent luciferase activity test (Emax values from Fig. 1) were used in lieu of the affinity constants (Ki in the above equations). FKK4 would appear as the most efficient compound since it is placed in the NE panel (GL, unpublished observations). However, this congener might suffer from metabolic liability with its N-protecting group possibly generating toxic aldehydes by oxidative cleavage in vivo. Unambiguously, the two most efficient compounds besides FKK4 are FKK5 and FKK6 which were therefore considered suitable lead compounds, as al so

AhR = target: T2, AhR (Homo sapiens, UniProt P35869); assay: AhR reporter assay, HepG2 cells stably expressing pCYP1A1 luciferase (AZ-AHR); assay type: cell-based; conditions: for FOLD INDUCTION (AZ-AHR luciferase): AZ-AHR cells, fold vs DMSO
T2 construct: endogenous in cells; host or cells: AZ-AHR (HepG2)
T2 sequence (P35869 11-848): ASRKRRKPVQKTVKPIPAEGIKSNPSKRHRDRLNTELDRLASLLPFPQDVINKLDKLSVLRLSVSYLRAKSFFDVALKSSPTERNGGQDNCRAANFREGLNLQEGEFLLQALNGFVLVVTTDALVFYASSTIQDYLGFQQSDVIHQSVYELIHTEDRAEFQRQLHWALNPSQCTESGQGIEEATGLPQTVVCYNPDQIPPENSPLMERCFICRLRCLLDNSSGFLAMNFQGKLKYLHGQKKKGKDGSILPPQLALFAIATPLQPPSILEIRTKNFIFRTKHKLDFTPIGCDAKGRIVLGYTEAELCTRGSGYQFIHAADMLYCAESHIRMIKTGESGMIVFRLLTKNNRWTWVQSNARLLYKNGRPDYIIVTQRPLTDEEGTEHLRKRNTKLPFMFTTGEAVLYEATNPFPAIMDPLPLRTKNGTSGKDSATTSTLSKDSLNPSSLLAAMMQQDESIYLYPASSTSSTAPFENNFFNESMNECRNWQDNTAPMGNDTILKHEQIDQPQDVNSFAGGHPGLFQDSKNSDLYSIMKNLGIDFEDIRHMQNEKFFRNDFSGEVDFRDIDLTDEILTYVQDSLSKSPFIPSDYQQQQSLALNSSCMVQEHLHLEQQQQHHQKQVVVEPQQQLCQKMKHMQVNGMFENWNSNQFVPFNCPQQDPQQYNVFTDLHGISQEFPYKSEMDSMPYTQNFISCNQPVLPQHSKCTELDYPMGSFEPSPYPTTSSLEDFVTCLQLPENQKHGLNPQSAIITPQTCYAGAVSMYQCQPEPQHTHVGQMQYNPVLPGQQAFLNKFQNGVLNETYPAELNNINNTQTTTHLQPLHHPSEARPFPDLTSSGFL
Experimental: Incubations were performed in four technical replicates.

PXR [2] = target: T1, PXR; assay: PXR reporter (p3A4-luc luciferase) assay in LS180 cells transiently transfected with wild-type PXR; conditions: for FOLD INDUCTION of PXR reporter luciferase activity: 24 h, over UT
Experimental: Incubations were performed in four technical replicates. After the treatments, cells were lysed and luciferase activity was measured on Tecan Infinite M200 Pro plate reader (Schoeller Instruments, Prague, Czech Republic). The data are expressed as fold induction ± SD of luciferase activity over the control cells (agonistic mode—in the absence of a model ligand) or as a percentage of maximal activation ± SD (antagonistic mode—in the presence of a model ligand). […] For all the transfection experiments, specifically multiplexed transfections, the control wells were mock‐transfected ([…]). However, to exclude non‐specific binding of PXR (or other factors) upstream of the luciferase gene within non‐PXR‐binding elements, we performed pilot experiments in different cell passages (P11, P14, and P17) of LS174T cells using a mock luciferase plasmid (luciferase not containing an upstream PXR‐binding element of the CYP3A4 promoter).

[3] = test system: PXR occupancy of CYP3A4 and MDR1 promoter; assay: Chromatin immunoprecipitation (ChIP) in PXR-transfected LS174T cells; conditions: 10 μM; relative to DMSO = 1; each column a repeat experiment (Fig 1d)
Experimental: LS174T cells were transfected with pSG5‐PXR (2 μg/plate/1 × 10^7 cells). […] Briefly, cells were chemically cross‐linked with formaldehyde in culture media for 15 min at room temperature. […] Cells were rinsed twice with cold PBS (phosphate‐buffered saline) (pH 7.5) and scraped in PBS supplemented with PIC (protease inhibitor cocktail).
Cell pellets were collected and immediately resuspended in immunoprecipitation (IP) buffer (150 mM NaCl (sodium chloride), 50 mM Tris–HCl at pH 7.5, 5 mM EDTA (ethylenediaminetetraacetic acid), 0.5% NP‐40, 1% Triton X‐100). The nuclei were centrifuged at 12,000 × g for 1 min and resuspended in fresh IP buffer. Chromatin was sheared by sonication to an average size of 0.2‐0.9 kb. Lysates were cleared by centrifugation at 12,000 × g for 10 min. […] 10% (wt/vol) Chelex 100 was added to the beads followed by boiling of the suspension and centrifugation at 12,000 × g for 1 min to obtain chromatin.
Purified chromatin DNA was used to perform RT–qPCR. […] Data were analyzed using SDS 2.2.1 program (ABI Biotechnology).

IL-8 mRNA = assay: TNF-α-induced IL-8 mRNA in human colonic enteroids (Calgary Protocol); assay type: cell-based; conditions: 10 μM, pair-wise vs DMSO
Experimental: Samples were immediately processed to yield isolated colonic crypts as previously described (Fernando et al, 2017). Isolated colonic crypts were embedded in Matrigel® (Corning) and cultured in Intesticult^tm Organoid Growth Media. Human organoids were pretreated for 6 h with either FKK5, FKK6, FKK9, or vehicle (DMSO), then stimulated with human recombinant TNF‐alpha in the presence of either treatment for an additional 12 h. Organoids were washed in PBS, disrupted in Tri Reagent® (Sigma, Oakville, ON, CAN), and frozen at −80°C. After thawing, chloroform was added, samples were centrifuged for 15 min, and the resulting aqueous phase was then added to equal volumes of 70% ethanol and further processed using the RNeasy mini kit (Qiagen). cDNA was synthesized using the QuantiTect RT kit (Qiagen) according to the manufacturer's protocol. Resulting cDNA was used as a template for quantitative real‐time PCR using Perfecta SYBR Green FastMix with ROX (QuantaBio). PCR and analysis were performed using a StepOne PCR System (Applied Biosystems). Gene expression was calculated relative to β‐actin expression and expressed as fold change of control. The primers used were as follows: Human®‐Actin (NM_001101), Human CYP3A4 (NM_001202855), and Human ABCB1 (NM_000927).

Compound | FOLD INDUCTION (AZ-AHR luciferase) (AhR; 1 nM) [fold] | FOLD INDUCTION (AZ-AHR luciferase) (AhR; 10 nM) [fold] | FOLD INDUCTION (AZ-AHR luciferase) (AhR; 100 nM) [fold] | FOLD INDUCTION (AZ-AHR luciferase) (AhR; 1µM) [fold] | FOLD INDUCTION (AZ-AHR luciferase) (AhR; 10 µM) [fold] | aver (mean luciferase signal of H1-H4) (PXR [2]; 1 nM) | FOLD INDUCTION of PXR reporter luciferase activity (PXR [2]; 1 nM) [fold] | aver (mean luciferase signal of H1-H4) (PXR [2]; 10 nM) | FOLD INDUCTION of PXR reporter luciferase activity (PXR [2]; 10 nM) [fold] | aver (mean luciferase signal of H1-H4) (PXR [2]; 100 nM) | FOLD INDUCTION of PXR reporter luciferase activity (PXR [2]; 100 nM) [fold] | aver (mean luciferase signal of H1-H4) (PXR [2]; 1 uM) | FOLD INDUCTION of PXR reporter luciferase activity (PXR [2]; 1 uM) [fold] | aver (mean luciferase signal of H1-H4) (PXR [2]; 10 uM) | FOLD INDUCTION of PXR reporter luciferase activity (PXR [2]; 10 uM) [fold] | aver (mean luciferase signal of H1-H4) (PXR [2]; 25 uM) | FOLD INDUCTION of PXR reporter luciferase activity (PXR [2]; 25 uM) [fold] | also measured
c1ccc2[nH]ccc2c1 [indole] |  |  |  |  |  |  |  |  |  |  |  |  |  |  |  |  |  | LD50 (rats): ~ 1 g/kg
CC#CC(O)(c1ccncc1)c1cc2ccccc2n1COCC (stereo not shown) [FKK4] | 0.8 | 0.644 | 0.8 | 1.2 | 7.1 | 4365.5 | 1.4 | 4279.3 | 1.3 | 5499.3 | 1.7 | 21392.8 | 6.7 | 102793.8 | 32.2 | 122639.5 | 38.4 | LEM analysis prediction (PXR [1]): efficient agonist; AhR activation (in words) (AhR): variable degrees of dose‐dependent AhR activation profiles
CCOCn1c(C(O)(Cc2cc3ccccc3[nH]2)c2ccncc2)cc2ccccc21 (racemic) [FKK9] | 0.6 | 0.4 | 1.3 | 15.9 | 584.9 | 4233.7 | 1.1 | 4676.8 | 1.2 | 5944.0 | 1.6 | 19145.3 | 5.0 | 98175.8 | 25.8 | 68593.5 | 18.0 | CYP3A4 Fold Expression (2-ΔΔCt) [3]: 0.943 and 0.9893 and 1.172 and 1.777; AhR activation (AhR; 10 μM): > 100 fold; TNF-α-induced IL-8 mRNA levels (IL-8 mRNA): did not show significant effects

Reference: publication PMC7136958, “Targeting the pregnane X receptor using microbial metabolite mimicry” (EMBO Molecular Medicine, 2020)
